From US11667634B2, “Inhibitors of RAF kinases” (Kinnate Biopharma Inc., priority 2019, dated 2023)

Target: human RAF1 (Homo sapiens (Human), UniProt P04049)
Experiment: Protein kinase assay (radiometric 33P-ATP, MEK1 (K97R) substrate)
Format: biochemical
Conditions: substrate human MEK1 (K97R) 3 micromolar, ATP 10 micromolar, 3-fold dilution from 10 micromolar, read-out: RAF-1 IC50
Description: Protein kinase assay: Assay platform was used to measure kinase/inhibitor interactions as described previously (Anastassiadis et al., 2011). In brief, for each reaction, kinase and substrate were mixed in a buffer containing 20 mM HEPES (pH 7.5), 10 mM MgCl2, 1 mM EGTA, 0.02% Brij35, 0.02 mg/mL BSA, 0.1 mM Na3VO4, 2 mM DTT, and 1% DMSO. All compounds were solubilized in DMSO. Compounds were then added to each reaction mixture via acoustic dispense using an ECHO 550 nanoliter dispenser. For human RAF1 testing, human MEK1 (K97R) was used as a substrate at a concentration of 3 micromolar, with a final ATP concentration of 10 micromolar. For human BRAF testing, human MEK1 (K97R) was used as a substrate at 1 micromolar concentration, with a final ATP concentration of 25 micromolar. […] After a 20-min incubation, ATP (Sigma-Aldrich, St. Louis, Mo. 63178) and [g33P] ATP (specific activity 10 microCi/microliter) purchased at PerkinElmer (Boston, Mass., 02118 Cat #BLU 003H250UC) were added at a final total concentration of 10 mM. Reactions were carried out at room temperature for 2 hr and spotted onto P81 ion exchange cellulose chromatography paper (Reaction Biology). Filter paper was washed in 0.75% phosphoric acid to remove unincorporated ATP. The percent remaining kinase activity relative to a vehicle-containing (DMSO) kinase reaction was calculated for each kinase/inhibitor pair. IC50 values were calculated using Prism 5 (GraphPad).

Sequence of human RAF1 (P04049 whole entry): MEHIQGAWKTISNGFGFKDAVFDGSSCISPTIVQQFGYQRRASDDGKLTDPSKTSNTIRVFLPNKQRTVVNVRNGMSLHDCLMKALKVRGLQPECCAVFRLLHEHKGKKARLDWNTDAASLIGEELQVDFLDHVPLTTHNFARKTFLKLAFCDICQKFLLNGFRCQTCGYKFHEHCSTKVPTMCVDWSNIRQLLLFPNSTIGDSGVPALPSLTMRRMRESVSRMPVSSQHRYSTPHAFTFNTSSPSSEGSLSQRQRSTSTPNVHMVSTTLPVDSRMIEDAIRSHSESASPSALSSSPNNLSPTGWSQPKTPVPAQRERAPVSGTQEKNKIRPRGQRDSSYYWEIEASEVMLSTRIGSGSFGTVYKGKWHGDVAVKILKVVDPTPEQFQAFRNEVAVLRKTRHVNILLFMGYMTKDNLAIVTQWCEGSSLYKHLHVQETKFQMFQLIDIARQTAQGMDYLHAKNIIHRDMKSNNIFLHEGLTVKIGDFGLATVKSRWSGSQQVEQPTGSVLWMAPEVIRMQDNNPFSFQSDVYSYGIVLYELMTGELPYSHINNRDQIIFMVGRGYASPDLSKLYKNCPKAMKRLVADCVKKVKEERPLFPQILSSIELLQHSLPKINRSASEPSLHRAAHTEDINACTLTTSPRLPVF

SMILES	IC50 [nM]
CNc1ncc2cc(-c3cc(NC(=O)N4CCOC(C(F)(F)F)C4)ccc3C)cnc2n1 (stereo in doubt) [Example 58, (2S)-N-[4-methyl-3-2-(methylamino)pyrido[2,3-d]pyrimidin-6-yl]phenyl]-2-(trifluoromethyl)morpholine-4-carboxamide]	≤ 10
CNc1ncc2cc(-c3cc(NC(=O)N4CC[C@H](OC(F)F)C4)c(F)cc3C)cnc2n1 [Example 28, (S)-3-(difluoromethoxy)-N-(2-fluoro-4-methyl-5-(2-(methylamino)pyrido[2,3-d]pyrimidin-6-yl)phenyl)pyrrolidine-1-carboxamide]	≤ 10
C#Cc1nc2nc(NC)ncc2cc1-c1cc(NC(=O)c2ccnc(C(F)(F)F)c2)ccc1C [Example 67, N-[3-[7-ethynyl-2-(methylamino)pyrido[2,3-d]pyrimidin-6-yl]-4-methylphenyl]-2-(trifluoromethyl)pyridine-4-carboxamide]	≤ 10
